Measurements published in PMC11374673, “Discovery of isoquinoline sulfonamides as allosteric gyrase inhibitors with activity against fluoroquinolone-resistant bacteria” (Nature Chemistry, 2024).
“And” between values parts separate entries of the source, which are not always exact repeats. Identical values can stand only once. “Also recorded” adds a separate entry of the source.

Tested on: E. coli W3110
Experiment: Checkerboard assay with PMBN
Conditions: for Checkerboard well reading (growth), Average values: average of 3 wells; for Checkerboard well reading (growth): single wells (triplicate)

## O=S(=O)(NC[C@H]1CC[C@@H](c2ccc(-c3ccc(F)nc3)cc2)N1)c1cccc2cnccc12 [LEI-801]
LEI-801 1.5625 µM + PMBN 16 µM
  Checkerboard well reading (growth), Average values: 0.3394
  Checkerboard well reading (growth): 0.3897 and 0.339 and 0.2896
LEI-801 1.5625 µM + PMBN 32 µM
  Checkerboard well reading (growth), Average values: 0.3074
  Checkerboard well reading (growth): 0.2616 and 0.2961 and 0.3644
LEI-801 3.125 µM + PMBN 0 µM
  Checkerboard well reading (growth), Average values: 0.7892
LEI-801 3.125 µM + PMBN 0.5 µM
  Checkerboard well reading (growth), Average values: 0.6976
LEI-801 3.125 µM + PMBN 1 µM
  Checkerboard well reading (growth), Average values: 0.7008
LEI-801 3.125 µM + PMBN 2 µM
  Checkerboard well reading (growth), Average values: 0.5725
LEI-801 3.125 µM + PMBN 4 µM
  Checkerboard well reading (growth), Average values: 0.4871
LEI-801 3.125 µM + PMBN 8 µM
  Checkerboard well reading (growth), Average values: 0.2805
LEI-801 3.125 µM + PMBN 16 µM
  Checkerboard well reading (growth), Average values: 0.2397
LEI-801 3.125 µM + PMBN 32 µM
  Checkerboard well reading (growth), Average values: 0.2242
LEI-801 6.25 µM + PMBN 0 µM
  Checkerboard well reading (growth), Average values: 0.7739
LEI-801 6.25 µM + PMBN 0.5 µM
  Checkerboard well reading (growth), Average values: 0.6373
LEI-801 6.25 µM + PMBN 1 µM
  Checkerboard well reading (growth), Average values: 0.4799
LEI-801 6.25 µM + PMBN 2 µM
  Checkerboard well reading (growth), Average values: 0.2823
LEI-801 6.25 µM + PMBN 4 µM
  Checkerboard well reading (growth), Average values: 0.1833
LEI-801 6.25 µM + PMBN 8 µM
  Checkerboard well reading (growth), Average values: 0.1357
LEI-801 6.25 µM + PMBN 16 µM
  Checkerboard well reading (growth), Average values: 0.1386
LEI-801 6.25 µM + PMBN 32 µM
  Checkerboard well reading (growth), Average values: 0.1521
LEI-801 12.5 µM + PMBN 0 µM
  Checkerboard well reading (growth), Average values: 0.6968
LEI-801 12.5 µM + PMBN 0.5 µM
  Checkerboard well reading (growth), Average values: 0.5454
LEI-801 12.5 µM + PMBN 1 µM
  Checkerboard well reading (growth), Average values: 0.4004
LEI-801 12.5 µM + PMBN 2 µM
  Checkerboard well reading (growth), Average values: 0.1564
  Checkerboard well reading (growth): 0.1441 and 0.1568 and 0.1684
LEI-801 12.5 µM + PMBN 4 µM
  Checkerboard well reading (growth), Average values: 0.1485
  Checkerboard well reading (growth): 0.1572
LEI-801 12.5 µM + PMBN 8 µM
  Checkerboard well reading (growth), Average values: 0.1397
LEI-801 12.5 µM + PMBN 16 µM
  Checkerboard well reading (growth), Average values: 0.1401
LEI-801 12.5 µM + PMBN 32 µM
  Checkerboard well reading (growth), Average values: 0.1472
LEI-801 25 µM + PMBN 0 µM
  Checkerboard well reading (growth), Average values: 0.6592
  Checkerboard well reading (growth): 0.7013 and 0.6648 and 0.6113
LEI-801 25 µM + PMBN 0.5 µM
  Checkerboard well reading (growth), Average values: 0.5495
  Checkerboard well reading (growth): 0.5605 and 0.5428 and 0.5453
LEI-801 25 µM + PMBN 1 µM
  Checkerboard well reading (growth), Average values: 0.1537
  Checkerboard well reading (growth): 0.153 and 0.1529 and 0.1554
LEI-801 25 µM + PMBN 2 µM
  Checkerboard well reading (growth), Average values: 0.155
  Checkerboard well reading (growth): 0.1518 and 0.1536 and 0.1596
LEI-801 25 µM + PMBN 4 µM
  Checkerboard well reading (growth), Average values: 0.1451
  Checkerboard well reading (growth): 0.1525 and 0.1428 and 0.1399
LEI-801 25 µM + PMBN 8 µM
  Checkerboard well reading (growth), Average values: 0.1413
  Checkerboard well reading (growth): 0.1394 and 0.1427 and 0.1418
LEI-801 25 µM + PMBN 16 µM
  Checkerboard well reading (growth), Average values: 0.1492
  Checkerboard well reading (growth): 0.1486 and 0.1511 and 0.148
LEI-801 25 µM + PMBN 32 µM
  Checkerboard well reading (growth), Average values: 0.1528
  Checkerboard well reading (growth): 0.1518 and 0.1502 and 0.1563
LEI-801 50 µM + PMBN 0 µM
  Checkerboard well reading (growth), Average values: 0.5341
  Checkerboard well reading (growth): 0.4876 and 0.5464 and 0.5682
LEI-801 50 µM + PMBN 0.5 µM
  Checkerboard well reading (growth), Average values: 0.1519
  Checkerboard well reading (growth): 0.1573 and 0.1437 and 0.1549
LEI-801 50 µM + PMBN 1 µM
  Checkerboard well reading (growth), Average values: 0.152
  Checkerboard well reading (growth): 0.1515 and 0.1507 and 0.1538
LEI-801 50 µM + PMBN 2 µM
  Checkerboard well reading (growth), Average values: 0.1516
  Checkerboard well reading (growth): 0.15 and 0.1487 and 0.1561
LEI-801 50 µM + PMBN 4 µM
  Checkerboard well reading (growth), Average values: 0.1474
  Checkerboard well reading (growth): 0.1453 and 0.1491 and 0.1477
LEI-801 50 µM + PMBN 8 µM
  Checkerboard well reading (growth), Average values: 0.1653
  Checkerboard well reading (growth): 0.1998 and 0.1452 and 0.1509
LEI-801 50 µM + PMBN 16 µM
  Checkerboard well reading (growth), Average values: 0.1513
  Checkerboard well reading (growth): 0.1499 and 0.152 and 0.1519
LEI-801 50 µM + PMBN 32 µM
  Checkerboard well reading (growth), Average values: 0.1507
  Checkerboard well reading (growth): 0.1485 and 0.1492 and 0.1546
LPS disruption (pharmacological)
  MIC E. coli + 8 μM PMBN: 6.25 µM
checkerboard
  synergy with PMBN: potentiates; also recorded: Clear synergy
Checkerboard with PMBN, E. coli W3110
  MSC: 6.25 µM
